US20120184548A1, “CARBOXYLIC ACID ARYL AMIDES” (priority 2011, published 2012)

Key:
Human DYRK1A = target: T1, Human DYRK1A (Homo sapiens, UniProt Q13627); assay: DYRK1A Kinase TR-FRET (IMAP-Tb) Assay; type: biochemical; conditions: TR-FRET; ATP 70 μM; 37° C. for 60 minutes; averages of multiple runs; read-out: Enzyme IC50 DYRK1A
T1 construct: purchased Invitrogen PV3997

[1] = system: SW620 human colon cancer cells; assay: SW620 Cell Viability Assay (CellTiter-Glo); type: cell-based; conditions: SW-620, 96 h, 4 days incubation, read-out: Cellular EC50 SW620
Method: 1. Cell Plate Preparation: SW620 human colon cancer cells (known to express DYRK1B), obtained from ATCC, were seeded into 96-well plates at […] in 50 μL of media. • Harvested the required number of cells (counts & viability determined by Guava Viacount). • Centrifuge cells to pellet and removed supernant. • Resuspended in growth media (50 μL/well) & pipetted thoroughly to break up clumps. • Setup for ˜100 wells/plate, therefore, VT=5 mL/plate @ 1.2×10^5 cells/mL. 1A. Some cells (S-) were allowed to attach for 24 hrs, serum starved for 48 hrs, and then followed with treatments of test compound.
Test Compound solution was prepared in regular corresponding media supplemented with serum
2. Test Compound Preparation: Test compounds were solubilized in either DMSO or media and prepared at various stock concentrations. • All compounds were incubated at 37° C. for 30 minutes and vortexed. • (5 mM stocks of test compound were prepared for non-soluble drugs)
3. Test Compound Plate Preparation:
• The 10 mM test compound stock was diluted to a concentration of 100× the final Cmax concentration. • Then the test compound stock is diluted 50-fold in media and/or second test compound for a final Cmax concentration in the test compound plate. • The Cmax in the test compound plate (2% DMSO) is 2-fold higher than the final Cmax in the cell plate (60 uL titrations were 1:3). 4. Viability Assay: This assay was performed as follows: • Transfer 50 μL of test compound solution per well from the test compound plate onto the cell plate prepared in Step #1. • Mix the plate with treated cells by pipetting up and down three times with 200 μL multi-channel pipet. • Incubate the cells in 5% CO2 incubator @ 37° C. for 4 days. • Run the CellTiter-Glo™ Luminescent Cell Viability Assay. The results of this assay, given as EC50 values, indicate the concentration of test compound that inhibits tumor cell proliferation by 50%.

Human DYRK1B = target: T2, Human DYRK1B (Homo sapiens, UniProt Q9Y463); assay: DYRK1B Kinase TR-FRET (IMAP-Tb) Assay; type: biochemical; conditions: TR-FRET; ATP 70 μM; 37° C. for 60 minutes; averages of multiple runs; read-out: Enzyme IC50 DYRK1B
T2 construct: purchased Invitrogen PR8350B (former PV4649)
T2 sequence (Q9Y463 whole entry): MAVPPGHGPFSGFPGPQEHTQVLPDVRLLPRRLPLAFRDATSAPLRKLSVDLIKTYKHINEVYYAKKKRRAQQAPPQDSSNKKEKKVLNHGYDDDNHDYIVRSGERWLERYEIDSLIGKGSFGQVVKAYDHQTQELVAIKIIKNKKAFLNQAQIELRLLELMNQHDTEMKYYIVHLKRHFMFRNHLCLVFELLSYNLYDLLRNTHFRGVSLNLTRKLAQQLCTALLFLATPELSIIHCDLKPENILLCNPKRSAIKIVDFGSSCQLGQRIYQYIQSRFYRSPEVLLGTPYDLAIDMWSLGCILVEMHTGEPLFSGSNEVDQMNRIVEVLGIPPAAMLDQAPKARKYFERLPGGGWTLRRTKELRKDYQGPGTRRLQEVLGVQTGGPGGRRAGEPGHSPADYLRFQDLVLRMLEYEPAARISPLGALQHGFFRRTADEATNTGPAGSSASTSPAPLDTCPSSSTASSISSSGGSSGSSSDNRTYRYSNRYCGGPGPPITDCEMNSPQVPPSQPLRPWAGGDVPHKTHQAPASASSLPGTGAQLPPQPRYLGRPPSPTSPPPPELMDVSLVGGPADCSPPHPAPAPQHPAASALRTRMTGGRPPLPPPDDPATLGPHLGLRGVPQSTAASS

Row | Structure (SMILES) | IC50 (Human DYRK1A) [nM] | EC50 [1] [nM] | IC50 (Human DYRK1B) [nM]
1 | COCCOc1cc2cc(C(=O)Nc3cc(C(=O)NCc4cccc(Cl)c4)ccc3Cl)c(=O)[nH]c2cc1OC [Example 55, N-(2-Chloro-5-(3-chlorobenzylcarbamoyl)phenyl)-7-methoxy-6-(2-methoxyethoxy)-2-oxo-1,2-dihydroquinoline-3-carboxamide] | 48.9 | 129 | 37.3
2 | COc1cc2cc(C(=O)Nc3cc(C(=O)N[C@H](CO)c4ccccc4)ccc3C)c(=O)[nH]c2cc1OC [Example 57, (S)-N-(5-(2-Hydroxy-1-phenylethylcarbamoyl)-2-methylphenyl)-6,7-dimethoxy-2-oxo-1,2-dihydroquinoline-3-carboxamide] | 186 | 6500 | 883
3 | COCCOc1cc2cc(C(=O)Nc3cc(C(=O)NC(CN)c4cccc(Cl)c4)ccc3Cl)c(=O)[nH]c2cc1OC (stereo not drawn) [Example 60, N-(5-(2-Amino-1-(3-chlorophenyl)ethylcarbamoyl)-2-chlorophenyl)-7-methoxy-6-(2-methoxyethoxy)-2-oxo-1,2-dihydroquinoline-3-carboxamide] | 14.3 | 200 | 21.7
4 | COCCOc1cc2cc(C(=O)Nc3cc(C(=O)NC(CCN)c4ccccc4)ccc3Cl)c(=O)[nH]c2cc1OC (stereo not drawn) [Example 61, N-(5-(3-Amino-1-phenylpropylcarbamoyl)-2-chlorophenyl)-7-methoxy-6-(2-methoxyethoxy)-2-oxo-1,2-dihydroquinoline-3-carboxamide] | 15.7 | 470 | 11.5
5 | COCCOc1cc2cc(C(=O)Nc3cc(C(=O)NC(CN)c4ccccc4)ccc3Cl)c(=O)[nH]c2cc1OC (stereo not drawn) [Example 62, N-(5-(2-Amino-1-phenylethylcarbamoyl)-2-chlorophenyl)-7-methoxy-6-(2-methoxyethoxy)-2-oxo-1,2-dihydroquinoline-3-carboxamide] | 11.4 | 440 | 29.1
6 | COCCOc1cc2cc(C(=O)Nc3cc(C(=O)N[C@H](CCN)c4ccccc4)ccc3Cl)c(=O)[nH]c2cc1OC [Example 63, (R)-N-(5-(3-Amino-1-phenylpropylcarbamoyl)-2-chlorophenyl)-7-methoxy-6-(2-methoxyethoxy)-2-oxo-1,2-dihydroquinoline-3-carboxamide] | 5 | 640 | 8
7 | COCCOc1cc2cc(C(=O)Nc3cc(C(=O)N[C@@H](CCN)c4ccccc4)ccc3Cl)c(=O)[nH]c2cc1OC [Example 64, (S)-N-(5-(3-Amino-1-phenylpropylcarbamoyl)-2-chlorophenyl)-7-methoxy-6-(2-methoxyethoxy)-2-oxo-1,2-dihydroquinoline-3-carboxamide] | 186 | 9200 | 253
